Experiment: Potentiometric
Format: physicochemical
Settings: 1-octanol/water biphasic system, log P (mean ± SEM), octanol / ISA water, neutral species, 25.0 ± 0.5 °C, 150 mM KCl, mean ± SEM of at least three independent replicates

Row | logP | SMILES
1 | 3.98 ± 0.03 | Clc1ccc(CNc2ncnc3ccccc23)cc1 [SM04, c1ccc2c(c1)c(ncn2)NCc3ccc(cc3)Cl]
2 | 3.1 ± 0.03 | Cc1ccc2[nH]c(=O)c(CC(=O)O)c(-c3ccccc3)c2c1 [SM08, Cc1ccc2c(c1)c(c(c(=O)[nH]2)CC(=O)O)c3ccccc3]
3 | 2.62 ± 0.01 | O=C(Nc1ccncc1)c1c(Cl)cccc1Cl [SM16, c1cc(c(c(c1)Cl)C(=O)Nc2ccncc2)Cl]
4 | 3.03 ± 0.07 | COc1cccc(Nc2ncnc3ccccc23)c1 [SM09, COc1cccc(c1)Nc2c3ccccc3ncn2.Cl]
5 | 4.09 ± 0.03 | FC(F)(F)c1cccc(Nc2ncnc3ccccc23)c1 [SM02, c1ccc2c(c1)c(ncn2)Nc3cccc(c3)C(F)(F)F]
6 | 3.07 ± 0.03 | Oc1ccc(-n2cnc3ccccc32)cc1 [SM15, c1ccc2c(c1)ncn2c3ccc(cc3)O]
7 | 3.83 ± 0.03 | Clc1cccc(Nc2ncnc3ccccc23)c1 [SM12, c1ccc2c(c1)c(ncn2)Nc3cccc(c3)Cl.Cl]
8 | 2.92 ± 0.04 | COc1cc2ncnc(Nc3cccc(C)c3)c2cc1OC [SM13, Cc1cccc(c1)Nc2c3cc(c(cc3ncn2)OC)OC]

Row | SMILES | logP
9 | Nc1ccc2c(c1)ncn2-c1ccccc1 [SM14, c1ccc(cc1)n2cnc3c2ccc(c3)N] | 1.95 ± 0.03
10 | Nc1ncnc2c1cnn2-c1ccccc1 [SM11, c1ccc(cc1)n2c3c(cn2)c(ncn3)N] | 2.1 ± 0.04
